Measured values published in publication PMC9367672, “In vitro differences in toddalolactone metabolism in various species and its effect on cytochrome P450 expression” (Pharmaceutical Biology, 2022).

Key:
[1] = biological target: T1, CYP1A1 (Homo sapiens, UniProt P04798); test: Enzyme kinetics of toddalolactone metabolism by recombinant CYP1A1; conditions: recombinant CYP1A1 (15 nM); P4 formation
T1 sequence (P04798 1-512): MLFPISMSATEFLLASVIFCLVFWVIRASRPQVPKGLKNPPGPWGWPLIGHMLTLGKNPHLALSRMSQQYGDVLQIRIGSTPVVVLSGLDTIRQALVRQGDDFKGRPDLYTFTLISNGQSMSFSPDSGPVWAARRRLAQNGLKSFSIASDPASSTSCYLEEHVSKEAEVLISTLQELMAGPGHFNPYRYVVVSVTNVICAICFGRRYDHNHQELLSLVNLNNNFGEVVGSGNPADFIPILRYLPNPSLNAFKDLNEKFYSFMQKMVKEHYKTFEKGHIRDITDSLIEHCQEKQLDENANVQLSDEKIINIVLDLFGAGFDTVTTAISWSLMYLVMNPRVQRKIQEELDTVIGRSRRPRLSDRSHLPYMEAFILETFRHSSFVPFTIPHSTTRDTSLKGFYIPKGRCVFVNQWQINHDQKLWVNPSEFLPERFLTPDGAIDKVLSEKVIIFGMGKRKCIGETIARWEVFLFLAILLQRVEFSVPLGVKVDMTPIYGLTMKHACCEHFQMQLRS
Method: The enzyme kinetics of toddalolactone in oxidative metabolism and glucuronidation were determined by incubating liver microsomes (0.2 mg/mL) or CYPs (15 nM) with different concentrations of toddalolactone (1–200 μM). […] The in vitro intrinsic clearance (CLint) was calculated based on the Vmax/Km ratio. Metabolites were quantified using the standard curve for toddalolactone because of the absence of metabolite standards. […]

[2] = Enzyme kinetics of toddalolactone metabolism in human liver microsomes (oxidative metabolism and glucuronidation); format: in vitro ADME; conditions: human, liver microsomes, pH 7.4, HLMs, Vmax/Km
Method: (§1) The CYP reaction system (200 μL) consisted of 0.1 M potassium phosphate buffer (pH 7.4), an NADPH-generating system (1 mM NADPH, 10 mM G-6-P, 1 unit/mL G-6-PD, 4 mM MgCl2), and liver microsomes or recombinant human microsomes (supersomes). Each of the in vitro enzymatic assays using liver microsomes was linear with respect to incubation time and amount of protein. After a pre-incubation at 37 °C for 3 min, the reactions were initiated by adding NADP^+. After incubating for 60 min, the reactions were quenched by adding 200 μL of ice-cold acetonitrile. Samples were centrifuged at 18,000 g for 15 min at 4 °C and 10 μL of supernatant was analyzed using an HPLC system. NADPH or CYP enzyme sources were not used in the control group to ensure that the metabolic reactions were CYP- and NADPH-dependent. All incubation assays were completed in triplicate. The data are presented as mean ± standard deviation (SD).
(§2) In the UGT reaction system, liver microsomes were incubated in 200 μL of the reaction system containing 4 mM UDPGA, 5 mM MgCl2, 20 µg/mL alamethicin, and 50 mM Tris-HCl buffer (pH 7.4). After pre-incubation at 37 °C for 3 min, UDPGA was added to the mixture to initiate the reactions. The mixtures were incubated at 37 °C for 60 min, followed by the addition of 200 μL of cold methanol to terminate the reactions. After centrifugation at 18,000 g for 15 min, 10 μL of the supernatant was analyzed by HPLC.
(§3) The enzyme kinetics of toddalolactone in oxidative metabolism and glucuronidation were determined by incubating liver microsomes (0.2 mg/mL) or CYPs (15 nM) with different concentrations of toddalolactone (1–200 μM). The kinetic parameters including Km and Vmax were obtained by fitting the experimental data to the Michaelis–Menten equation (Equation (1)), biphasic kinetics equation (Equation (2)), or substrate inhibition equation (Equation (3)) (He et al. [2018]), and the results were graphically represented on Eadie–Hofstee plots. The in vitro intrinsic clearance (CLint) was calculated based on the Vmax/Km ratio. Metabolites were quantified using the standard curve for toddalolactone because of the absence of metabolite standards. All incubations were repeated in three independent experiments. Kinetic constants were expressed with mean ± SD: (1) V=Vmax×[S]/Km+[S] (2) V=Vmax1×[S]/Ks1+[S]+Vmax2×[S]/Ks2+[S] (3) V=Vmax×[S]/Ks+[S]+[S]^2/Ksi where v is the rate of reaction, Vmax is the estimated maximum velocity, [S] is the substrate concentration, and Km is the affinity constant of the substrate; Vmax1 and Vmax2 represent the estimated maximum velocity of the two metabolic phases; Ks1 and Ks2 represent the affinity constants for two metabolic phases; Ks and Ksi are the substrate affinity and inhibition constants, respectively.
(§4) The enzyme kinetics in oxidative metabolism and glucuronidation of toddalolactone were studied, and preliminary experiments were performed to ensure that metabolites were formed in the linear range of both reaction time and microsomal protein concentration. The metabolite with the largest peak area was used to calculate the kinetic parameter values (Km, Vmax and CLint). Based on the results of toddalolactone metabolism in different species, the kinetic parameter values in RLMs, DLMs, MLMs, HLMs, RAMs, MIMs, PLMs, CYP1A1 and CYP3A5 were calculated using P4, P4, P4, P4, P2, P2, P4, P4 and P4 data in oxidative metabolism, respectively. In the glucuronidation reaction, the kinetic parameter values in RLMs, MLMs, HLMs, RAMs and PLMs were calculated using P5, P6, P6, P6 and P5 data, respectively.

[3] = system: HLMs; test: as above; format: in vitro ADME; conditions: HLMs; for V max: toddalolactone 1–200 μM
Method: as §1, §2, §3, §4

[4] = system: DLMs; test: Prediction of in vivo hepatic clearance in dogs from DLM kinetics; format: in vitro ADME, dog
Method: The in vivo hepatic clearances in oxidative metabolism and glucuronidation of toddalolactone were calculated using Equations (4)–(6) (Li et al. [2008]): (4) CLint in vitro=∑i=1nVmax(Mi)/Km(Mi) (5) CLint in vivo=CLint in vitro⋅SF (6) CLH=QH⋅fu⋅CLint in vivo/QH+fu⋅CLint in vivo where SF is the milligrams of microsomal protein per gram of liver multiplied by the grams of liver weight; CLH is hepatic clearance; fu is the unbound fraction in the blood (the value of fu was set to 1 due to the absence of available data for toddalolactone); QH is the blood flow in the liver; and Mi is the metabolite of toddalolacone. The physiological parameters to calculate intrinsic clearance were as follows. The liver weight of dogs, rats and humans were 32, 40 and 25.7 g/kg body weight, respectively; the content of microsomal protein was 77.9, 44.8 and 48.8 mg/g of liver; and the blood flow in the liver was 30.9, 55.2 and 20.7 mL/(min ⋅ kg), respectively (Naritomi et al. [2001]).

[5] = P450-catalyzed oxidation, P4 formation
[6] = glucuronide metabolism, P6 formation

COc1cc2oc(=O)ccc2c(OC)c1C[C@@H](O)C(C)(C)O [toddalolactone]
K m [1]: 60.12 ± 6.67 µM | microsomal CLint [2, 5]: 0.14 µL/min/mg | microsomal CLint [2, 6]: 0.75 µL/min/mg | K m [3, 5]: 244.63 ± 78.99 µM | V max [3, 5]: 35.07 ± 7.16 pmol/min/mg protein | K m [3, 6]: 66.33 ± 20.46 µM | V max [3, 6]: 50.16 ± 8.75 pmol/min/mg protein | CLH versus hepatic blood flow (QH) ([4]; DLMs): 5.41% | clearance class according to predicted CLH ([4]; dogs): low-clearance (low-clearance drugs (<30% liver blood flow)) | in vivo hepatic clearance (CLH) ([4]; dogs, predicted from kinetic parameters of P1–P6, fu set to 1): 0.47 mL/(min/kg body weight)
